The source made the active and inactive calls.
Tests used:
[1] = tested on: INS1; assay: INS-1E survival protection against cytokine death – cell-based, luminescence, retest, dose response (AID 449756); format: functional; settings: Rattus norvegicus;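 note: cell death triggered by IL-1 beta plus TNF-alpha plus IFN-gamma mixture; protective hits raise ATP signal compared with cytokine alone wells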
[2] = molecular target: Cytochrome P450 2C19 (Homo sapiens, UniProt P33261); assay: Cytochrome panel assay with activity outcomes. Panel member name: p450-cyp2c19 Compounds with AC50 equal or less than 10 uM are considered active; format: functional; settings: read-out: AC50
[3] = molecular target: T1, Cytochrome P450 1A2 (Homo sapiens, UniProt P05177);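 note: PubChem cytochrome P450 panel assay, CYP1A2 panel member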
T1 sequence (P05177 whole entry): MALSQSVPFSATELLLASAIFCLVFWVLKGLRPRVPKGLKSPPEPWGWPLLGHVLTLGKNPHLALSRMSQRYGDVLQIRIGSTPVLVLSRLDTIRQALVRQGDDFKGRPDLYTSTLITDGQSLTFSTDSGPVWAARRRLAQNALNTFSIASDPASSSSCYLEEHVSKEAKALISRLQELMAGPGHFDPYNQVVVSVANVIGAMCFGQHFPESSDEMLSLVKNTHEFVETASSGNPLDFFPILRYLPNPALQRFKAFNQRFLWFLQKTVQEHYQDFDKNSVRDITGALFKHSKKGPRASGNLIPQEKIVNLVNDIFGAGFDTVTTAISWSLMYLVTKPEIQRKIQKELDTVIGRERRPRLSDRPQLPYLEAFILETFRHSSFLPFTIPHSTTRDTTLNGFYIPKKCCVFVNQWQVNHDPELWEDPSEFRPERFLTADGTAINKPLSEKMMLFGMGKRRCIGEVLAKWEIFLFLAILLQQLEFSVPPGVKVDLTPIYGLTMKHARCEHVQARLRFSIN

[4] = molecular target: T2, Corticotropin-releasing factor receptor 2/Corticotropin-releasing factor-binding protein (Homo sapiens, UniProt P24387+Q13324); assay: activators of CRF receptor 2 with binding protein – uHTS hits, confirmation (AID 602473); format: functional; settings: read-out: EC50_Mean
T2 sequence (Q13324 whole entry): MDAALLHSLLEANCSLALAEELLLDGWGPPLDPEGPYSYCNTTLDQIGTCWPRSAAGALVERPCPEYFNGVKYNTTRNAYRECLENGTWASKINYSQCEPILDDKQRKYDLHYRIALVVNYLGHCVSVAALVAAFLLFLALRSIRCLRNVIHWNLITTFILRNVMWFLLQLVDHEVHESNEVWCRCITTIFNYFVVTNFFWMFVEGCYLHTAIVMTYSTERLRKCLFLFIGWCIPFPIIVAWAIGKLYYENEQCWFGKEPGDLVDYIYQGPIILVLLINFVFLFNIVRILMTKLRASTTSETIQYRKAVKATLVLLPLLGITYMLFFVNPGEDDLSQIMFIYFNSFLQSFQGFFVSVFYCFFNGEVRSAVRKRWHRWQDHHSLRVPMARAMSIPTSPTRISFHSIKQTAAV
T2 sequence (P24387 whole entry): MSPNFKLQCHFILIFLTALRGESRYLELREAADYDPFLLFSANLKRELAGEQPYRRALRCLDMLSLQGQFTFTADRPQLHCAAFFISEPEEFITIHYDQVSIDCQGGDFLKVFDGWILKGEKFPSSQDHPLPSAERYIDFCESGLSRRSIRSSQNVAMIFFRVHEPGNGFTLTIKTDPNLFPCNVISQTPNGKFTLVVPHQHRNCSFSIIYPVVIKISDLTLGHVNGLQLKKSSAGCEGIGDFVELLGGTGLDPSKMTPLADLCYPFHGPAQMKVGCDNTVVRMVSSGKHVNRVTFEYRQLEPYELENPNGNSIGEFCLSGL

[5] = molecular target: T2, Corticotropin-releasing factor receptor 2/Corticotropin-releasing factor-binding protein; assay: Dose Response confirmation of uHTS hits for small molecule antagonists of the CRF-binding protein and CRF-R2 receptor complex.; format: functional; settings: read-out: IC50_Mean
[6] = molecular target: Cytochrome P450 2D6 (Homo sapiens, UniProt P10635);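 note: CYP2D6 member of a cytochrome P450 panel assay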
[7] = molecular target: Cytochrome P450 2C9 (Homo sapiens, UniProt P11712)
[8] = Luminescence Cell-Based Dose Retest to Confirm Inhibitors of Cancer Stem Cells. [Related pubchem assays (depositor defined):AID2717, AID2721]; format: functional; settings: Homo sapiens
[9] = molecular target: Cytochrome P450 3A4 (Homo sapiens, UniProt P08684);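 note: CYP3A4 tested as one member of a cytochrome P450 panel screen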
[10] = tested on: Streptococcus; assay: GAS UMAA2166 growth inhibition – luminescence, BacTiterGlo, counter-screen for streptokinase expression inhibitor project, dose response (AID 1915); format: functional, organism-based;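 note: potency for reduction of bacterial viability or growth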
[11] = tested on: Streptococcus sp. 'group A'; assay: Streptococcus pyogenes SK(-)GAS viability under kanamycin – luminescence, BacTiterGlo, confirmation, counter-screen for streptokinase expression inhibitor project, dose response (AID 1900); format: functional, organism-based
[12] = molecular target: T3, Rac GTPase-activating protein 1 (Homo sapiens, UniProt Q9H0H5); assay: blockers of MgcRacGAP-driven Rac1 GTP hydrolysis – biochemical, ADP Hunter fluorescence, primary and confirmatory, confirmation (AID 624330); format: functional
T3 sequence (Q9H0H5 whole entry): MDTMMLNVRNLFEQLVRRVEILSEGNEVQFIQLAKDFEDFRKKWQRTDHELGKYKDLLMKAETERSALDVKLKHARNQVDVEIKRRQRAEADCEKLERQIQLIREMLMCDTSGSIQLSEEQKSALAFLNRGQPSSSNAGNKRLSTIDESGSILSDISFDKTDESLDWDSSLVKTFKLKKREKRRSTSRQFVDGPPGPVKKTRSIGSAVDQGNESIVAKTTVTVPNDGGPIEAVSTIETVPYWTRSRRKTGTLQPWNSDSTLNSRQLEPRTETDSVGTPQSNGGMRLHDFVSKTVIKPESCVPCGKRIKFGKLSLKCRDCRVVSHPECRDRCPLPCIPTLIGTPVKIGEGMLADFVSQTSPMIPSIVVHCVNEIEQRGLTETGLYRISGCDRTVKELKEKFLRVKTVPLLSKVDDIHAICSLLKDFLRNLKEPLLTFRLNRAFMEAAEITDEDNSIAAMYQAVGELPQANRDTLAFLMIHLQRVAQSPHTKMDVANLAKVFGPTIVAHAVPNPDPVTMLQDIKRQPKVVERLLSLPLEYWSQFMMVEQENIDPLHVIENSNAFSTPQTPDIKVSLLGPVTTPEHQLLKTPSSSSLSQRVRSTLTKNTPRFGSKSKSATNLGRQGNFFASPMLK

Cytochrome P450 2C19, sequence (P33261 whole entry): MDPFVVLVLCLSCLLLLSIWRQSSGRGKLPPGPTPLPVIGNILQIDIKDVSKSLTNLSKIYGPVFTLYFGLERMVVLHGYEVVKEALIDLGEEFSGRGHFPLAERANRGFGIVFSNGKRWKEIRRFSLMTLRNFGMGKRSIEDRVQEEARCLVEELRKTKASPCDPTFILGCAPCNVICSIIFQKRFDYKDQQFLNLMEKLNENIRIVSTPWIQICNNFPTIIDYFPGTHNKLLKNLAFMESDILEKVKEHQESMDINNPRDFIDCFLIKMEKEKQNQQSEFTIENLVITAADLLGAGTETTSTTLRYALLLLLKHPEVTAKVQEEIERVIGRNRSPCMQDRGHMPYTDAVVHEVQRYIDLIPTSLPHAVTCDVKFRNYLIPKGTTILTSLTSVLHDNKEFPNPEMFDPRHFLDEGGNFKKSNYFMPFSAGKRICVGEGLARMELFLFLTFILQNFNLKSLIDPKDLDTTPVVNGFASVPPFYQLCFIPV
Cytochrome P450 2D6, sequence (P10635 whole entry): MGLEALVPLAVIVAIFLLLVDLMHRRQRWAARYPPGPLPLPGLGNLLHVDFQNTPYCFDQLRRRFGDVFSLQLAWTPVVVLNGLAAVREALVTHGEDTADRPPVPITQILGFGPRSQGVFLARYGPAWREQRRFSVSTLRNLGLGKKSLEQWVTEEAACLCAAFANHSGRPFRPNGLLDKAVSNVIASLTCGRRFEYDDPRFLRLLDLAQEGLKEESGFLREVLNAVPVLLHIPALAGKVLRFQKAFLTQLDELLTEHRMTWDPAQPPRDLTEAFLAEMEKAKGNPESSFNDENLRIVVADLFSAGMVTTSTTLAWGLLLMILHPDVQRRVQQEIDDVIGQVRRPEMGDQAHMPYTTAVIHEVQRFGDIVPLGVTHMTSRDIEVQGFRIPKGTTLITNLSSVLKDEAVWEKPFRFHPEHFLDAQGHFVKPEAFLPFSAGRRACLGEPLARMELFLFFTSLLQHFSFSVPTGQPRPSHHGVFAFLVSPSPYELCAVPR
Cytochrome P450 2C9, sequence (P11712 whole entry): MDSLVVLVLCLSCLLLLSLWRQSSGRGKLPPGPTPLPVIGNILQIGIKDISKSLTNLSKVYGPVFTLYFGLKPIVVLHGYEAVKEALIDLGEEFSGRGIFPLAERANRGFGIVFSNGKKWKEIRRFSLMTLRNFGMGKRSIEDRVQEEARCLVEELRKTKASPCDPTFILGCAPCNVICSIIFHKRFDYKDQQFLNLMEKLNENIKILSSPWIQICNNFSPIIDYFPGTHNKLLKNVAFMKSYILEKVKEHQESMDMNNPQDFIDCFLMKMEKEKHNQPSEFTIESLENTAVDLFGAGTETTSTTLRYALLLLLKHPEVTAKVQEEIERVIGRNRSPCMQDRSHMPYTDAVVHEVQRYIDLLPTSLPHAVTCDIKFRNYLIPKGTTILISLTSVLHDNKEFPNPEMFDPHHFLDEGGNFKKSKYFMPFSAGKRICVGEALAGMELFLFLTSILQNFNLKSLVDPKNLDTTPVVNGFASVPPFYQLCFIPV
Cytochrome P450 3A4, sequence (P08684 whole entry): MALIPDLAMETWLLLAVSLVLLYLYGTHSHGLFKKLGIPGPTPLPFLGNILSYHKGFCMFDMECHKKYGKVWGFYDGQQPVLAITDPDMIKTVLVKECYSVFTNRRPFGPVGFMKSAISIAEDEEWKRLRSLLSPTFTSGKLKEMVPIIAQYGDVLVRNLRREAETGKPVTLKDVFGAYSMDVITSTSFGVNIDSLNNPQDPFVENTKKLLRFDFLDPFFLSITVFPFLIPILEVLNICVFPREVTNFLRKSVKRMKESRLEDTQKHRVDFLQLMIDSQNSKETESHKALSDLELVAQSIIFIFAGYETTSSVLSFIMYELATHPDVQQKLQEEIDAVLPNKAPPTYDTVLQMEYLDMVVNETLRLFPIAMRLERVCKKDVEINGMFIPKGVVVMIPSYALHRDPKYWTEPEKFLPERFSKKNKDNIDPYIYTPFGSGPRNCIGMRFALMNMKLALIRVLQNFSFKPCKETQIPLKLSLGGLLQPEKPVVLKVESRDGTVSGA

SMILES	AC50 [3]	EC50 [4]	IC50 [5]	also measured
O=C(c1cc(-c2cccc(Cl)c2)nc2ccccc12)N1CCN(c2ccccn2)CC1	–	–	–	AC50 [1]: 14.8 µM (active)
O=S(=O)(O)c1ccc2c(/N=N\c3c(O)ccc4ccccc34)cccc2c1	3.16 µM (inconclusive)	–	–	AC50 [2]: 0.631 µM (inconclusive)
CCC(CC)NC(=O)CC(c1ccccc1)c1ccccc1	–	> 53 µM (inactive)	> 47.1 µM (inactive)	–
O=C(COc1cccc(NC(=O)c2cccc([N+](=O)[O-])c2)c1)c1ccc(Br)cc1	5.62 µM (inconclusive)	–	–	AC50 [6]: 3.16 µM (inconclusive)
O=C(CN(C(=O)CSc1nc2ccccc2o1)c1cccc(F)c1)NC1CCCCC1	20 µM (inconclusive)	–	–	–
CCC/C=C(\CCC)C(NC(=O)Cc1ccccc1)c1ccc(C(=O)OC)cc1 (centres undefined)	15.8 µM (inconclusive)	–	–	AC50 [6]: 5.01 µM (inconclusive)
CCC/C=C(\CCC)C(NS(=O)(=O)c1ccc(-c2ccccc2)cc1)c1ccc(C(=O)OC)cc1 (centres undefined)	6.31 µM (inconclusive)	–	–	AC50 [7]: 3.16 µM (inconclusive); AC50 [6]: 39.8 µM (inconclusive)
CC(=O)Oc1ccc(-c2csc(Nc3cccc(C)n3)n2)cc1	–	–	–	AC50 [8]: 6.58 µM (active)
Cc1c(Cl)c([N+](=O)[O-])nn1CCCC(=O)Nc1cc(Oc2ccccc2)cc([N+](=O)[O-])c1	–	> 53 µM (inactive)	> 47.1 µM (inactive)	–
O=c1cc(N2CCCCC2)c(-c2ccccc2)nn1Cc1ccc(Cl)cc1	–	–	–	AC50 [8]: 2.33 µM (active)
COc1cccc(-c2csc(N3CCN(CC(=O)NNC(=O)c4ccc(Cl)cc4)CC3)n2)c1	8.91 µM (inconclusive)	–	–	–
Cc1ccc(S(=O)(=O)N2CCN(C(=O)COc3ccc(NC(=O)c4ccco4)cc3)CC2)cc1	–	–	–	AC50 [8]: > 195 µM (inactive)
Cc1ccc(Cl)cc1N(CC(=O)N1CCOCC1)S(C)(=O)=O	–	> 53 µM (inactive)	> 47.1 µM (inactive)	–
COc1cc2c(cc1O)[C@H]1Cc3ccc(OC)c(O)c3CN1CC2	15.8 µM (inconclusive)	–	–	AC50 [2]: 7.94 µM (inconclusive); AC50 [9]: 12.6 µM (inconclusive)
COCCn1c(=O)c(-c2ccc(Cl)cc2)nc2cnc(Nc3ccccc3)nc21	20 µM (inconclusive)	–	–	–
Cc1cccc(-c2cc3nc4c(c(NCc5ccco5)n3n2)CCCC4)c1	–	–	–	AC50 [8]: 7.11 µM (active)
CC(C)CN(CC(C)C)C(=O)CCCC(=O)N(CC(C)C)CC(C)C	–	> 53 µM (inactive)	> 47.1 µM (inactive)	–
O=C(NCC1CCCO1)c1onc(CSc2cccc3ccccc23)c1C(=O)O (centres undefined)	–	> 53 µM (inactive)	> 47.1 µM (inactive)	–
CCOC(=O)c1cc2c(=O)c3cc(C)ccc3oc2nc1C	–	> 53 µM (inactive)	> 47.1 µM (inactive)	–

SMILES	AC50 [3]	EC50 [4]	IC50 [5]	also measured
Cc1c(C(=O)Nc2nc(-c3ccccn3)cs2)oc2ccccc12	–	–	–	AC50 [1]: 5.62 µM (active)
Cc1nn(C)cc1CN(C)C(=O)c1ccc(OC2CCN(Cc3ccccn3)CC2)cc1	–	> 53 µM (inactive)	> 47.1 µM (inactive)	–
FC(F)(F)c1cc(CCN2C(S)=NC[C@@H]2CC2CCCCC2)cc(C(F)(F)F)c1	–	–	–	AC50 [8]: 5.79 µM (active); EC50 [10]: > 150 µM (not active); EC50 [11]: 5.13 µM (active)
COC(=O)c1c(NC(=O)C(C)(C)C)sc2c1C(C(=O)OC)CC2 (centres undefined)	0.794 µM (inconclusive)	–	–	AC50 [2]: 14.1 µM (inconclusive)
O=C(Oc1ccccc1)N1CCC[C@@]2(CCN(c3ccncc3)C2)C1	20 µM (inconclusive)	–	–	AC50 [6]: 20 µM (inconclusive)
CC(C)(C)OC(=O)NCCc1nnc(SCC(=O)Nc2cccc(Cl)c2)o1	25.1 µM (inconclusive)	–	–	AC50 [7]: 25.1 µM (inconclusive)
Cc1ccnc(NC(=O)c2cccc(S(=O)(=O)N3CCCC3)c2)c1	–	> 53 µM (inactive)	> 47.1 µM (inactive)	–
COc1ccc(NC2CCCN(C(=O)c3cccc(N4CCNC4=O)c3)C2)cc1 (centres undefined)	–	–	–	IC50 [12]: 75.2 µM (active)
COc1ccc(CCNC(=O)C(=O)NCC2OCCN2S(=O)(=O)c2ccc(OC)cc2)cc1 (centres undefined)	–	> 53 µM (inactive)	> 47.1 µM (inactive)	–
O=c1c2ccccc2nc(/C=C/c2ccccc2)n1-c1ccccc1O	–	–	–	AC50 [8]: 4.57 µM (active)
CCOc1ccc(C(=O)CCC(=O)N2CCN(c3ccc(O)cc3)CC2)cc1	–	–	–	AC50 [8]: 5.57 µM (active)
CC(C)(C)OC(=O)NCc1ccc(NC(=O)c2[nH]cnc2C(=O)NCCCNC(=O)c2nc[nH]c2C(=O)Nc2ccc(CNC(=O)OC(C)(C)C)cc2)cc1	–	–	–	AC50 [8]: 1.75 µM (active)
COc1ncnc(OC)c1S(=O)(=O)Nc1ccc(C(F)(F)F)cc1	–	–	–	AC50 [1]: > 260 µM (inactive)
CC1C(=O)N(Cc2cn(CCC3OCCCO3)nn2)CCS(=O)(=O)N1Cc1ccc(-c2ccc(Cl)cc2)cc1 (centres undefined)	–	> 53 µM (inactive)	> 47.1 µM (inactive)	–
Cc1onc(-c2ccccc2)c1C(=O)N/N=C/c1cc(Br)c(Br)o1	–	> 53 µM (inactive)	> 47.1 µM (inactive)	–
CN(C)C(=O)C1CC(=O)OC12CCCCC2 (centres undefined)	–	> 53 µM (inactive)	> 47.1 µM (inactive)	–
CC(=O)NCc1ccc(C(=O)O)cc1	–	> 53 µM (inactive)	> 47.1 µM (inactive)	–
C=C(CC[C@@H](O)C(C)(C)O)[C@H]1CC[C@]2(C)[C@@H]1CC[C@@H]1[C@@]3(C)CCC(=O)C(C)(C)C3CC[C@]12C (some centres undefined)	–	–	–	AC50 [8]: 1.75 µM (active)
CNCC[C@@H](Oc1ccccc1C)c1ccccc1 [ATOMOXETINE]	15.8 µM (inconclusive)	–	–	AC50 [9]: 12.6 µM (inconclusive)

From ChEMBL document CHEMBL1201862, “PubChem BioAssay data set” (2004)
